# Assay results from ChEMBL document CHEMBL1687837, “Roles of residues Cys69, Asn104, Phe160, Gly232, Ser237, and Asp240 in extended-spectrum beta-lactamase Toho-1” (2011).
# Legend:
# Escherichia coli [1] = assay: Activity of Escherichia coli beta-lactamase Toho-1 N104D mutant assessed as compound hydrolysis by spectrophotometry
# Escherichia coli [2] = assay: Activity of Escherichia coli beta-lactamase Toho-1 […] mutant assessed as compound hydrolysis by spectrophotometry
# Escherichia coli [3] = assay: Activity of Escherichia coli beta-lactamase Toho-1 N104A mutant assessed as compound hydrolysis by spectrophotometry
# Escherichia coli [4] = assay: Activity of Escherichia coli beta-lactamase Toho-1 D240S mutant assessed as compound hydrolysis by spectrophotometry
# Escherichia coli [5] = assay: Activity of Escherichia coli beta-lactamase Toho-1 D240A mutant assessed as compound hydrolysis by spectrophotometry
# Escherichia coli [6] = assay: Activity of Escherichia coli beta-lactamase Toho-1 C69A mutant assessed as compound hydrolysis by spectrophotometry
# Escherichia coli [7] = assay: Activity of Escherichia coli beta-lactamase Toho-1 F160T mutant assessed as compound hydrolysis by spectrophotometry
# Escherichia coli [8] = assay: Activity of Escherichia coli beta-lactamase Toho-1 G232A mutant assessed as compound hydrolysis by spectrophotometry
# Escherichia coli [9] = assay: Ratio of Kcat to Km for Escherichia coli beta-lactamase Toho-1 N104A mutant assessed as compound hydrolysis by spectrophotometry
# Escherichia coli [10] = assay: Ratio of Kcat to Km for Escherichia coli beta-lactamase Toho-1 N104D mutant assessed as compound hydrolysis by spectrophotometry
# Escherichia coli [11] = assay: Ratio of Kcat to Km for Escherichia coli beta-lactamase Toho-1 […] mutant assessed as compound hydrolysis by spectrophotometry
# Escherichia coli [12] = assay: Ratio of Kcat to Km for Escherichia coli beta-lactamase Toho-1 D240S mutant assessed as compound hydrolysis by spectrophotometry
# Escherichia coli [13] = assay: Ratio of Kcat to Km for Escherichia coli beta-lactamase Toho-1 D240A mutant assessed as compound hydrolysis by spectrophotometry
# Escherichia coli [14] = assay: Ratio of Kcat to Km for Escherichia coli beta-lactamase Toho-1 C69A mutant assessed as compound hydrolysis by spectrophotometry
# Escherichia coli [15] = assay: Ratio of Kcat to Km for Escherichia coli beta-lactamase Toho-1 F160T mutant assessed as compound hydrolysis by spectrophotometry
# Escherichia coli [16] = assay: Ratio of Kcat to Km for Escherichia coli beta-lactamase Toho-1 G232A mutant assessed as compound hydrolysis by spectrophotometry
# Escherichia coli [17] = assay: Antibacterial activity against Escherichia coli AS226 carrying pBSD-H2 after 18 hrs by broth microdilution method; type: functional; details: AS226, 18 h
# Escherichia coli [18] = assay: Antibacterial activity against Escherichia coli AS226 carrying pBSDN104A mutant after 18 hrs by broth microdilution method; type: functional; details: AS226, 18 h
# Escherichia coli [19] = assay: Antibacterial activity against Escherichia coli AS226 carrying pBSDN104D mutant after 18 hrs by broth microdilution method; type: functional; details: AS226, 18 h
# Escherichia coli [20] = assay: Antibacterial activity against Escherichia coli AS226 carrying pBSDS237A mutant after 18 hrs by broth microdilution method; type: functional; details: AS226, 18 h
# Escherichia coli [21] = assay: Antibacterial activity against Escherichia coli AS226 carrying pBSDD240S mutant after 18 hrs by broth microdilution method; type: functional; details: AS226, 18 h
# Escherichia coli [22] = assay: Antibacterial activity against Escherichia coli AS226 carrying pBSDD240A mutant after 18 hrs by broth microdilution method; type: functional; details: AS226, 18 h
# Escherichia coli [23] = assay: Antibacterial activity against Escherichia coli AS226 carrying pBSDC69A mutant after 18 hrs by broth microdilution method; type: functional; details: AS226, 18 h
# Escherichia coli [24] = assay: Antibacterial activity against Escherichia coli AS226 carrying pBSDF160T mutant after 18 hrs by broth microdilution method; type: functional; details: AS226, 18 h
# Escherichia coli [25] = assay: Antibacterial activity against Escherichia coli AS226 carrying pBSD6 mutant after 18 hrs by broth microdilution method; type: functional; details: AS226, 18 h
# Escherichia coli [26] = assay: Antibacterial activity against Escherichia coli AS226 after 18 hrs by broth microdilution method; type: functional; details: AS226, 18 h
# [27] = substrate: CC(=O)OCC1=C(C(=O)O)N2C(=O)[C@@H](NC(=O)Cc3cccs3)[C@H]2SC1; assay: (§1) Activity of Escherichia coli wild type beta-lactamase Toho-1 assessed as compound hydrolysis by spectrophotometry
# [28] = substrate: CC1(C)S[C@@H]2[C@H](NC(=O)[C@H](N)c3ccccc3)C(=O)N2[C@H]1C(=O)O; assay: as §1
# [29] = substrate: CO/N=C(\C(=O)N[C@@H]1C(=O)N2C(C(=O)O)=C(COC(C)=O)CS[C@H]12)c1csc(N)n1; assay: as §1
# [30] = substrate: CO/N=C(\C(=O)N[C@@H]1C(=O)N2C(C(=O)O)=C(CSc3cnns3)CS[C@H]12)c1csc(N)n1; assay: as §1
# [31] = substrate: C[C@H]1[C@H](NC(=O)/C(=N\OC(C)(C)C(=O)O)c2csc(N)n2)C(=O)N1S(=O)(=O)O; assay: as §1
# [32] = substrate: O=C(Cc1cccs1)N[C@@H]1C(=O)N2C(C(=O)[O-])=C(C[n+]3ccccc3)CS[C@H]12; assay: as §1
# [33] = substrate: CC(=O)OCC1=C(C(=O)O)N2C(=O)[C@@H](NC(=O)Cc3cccs3)[C@H]2SC1; assay: (§2) Ratio of Kcat to Km for Escherichia coli wild type beta-lactamase Toho-1 assessed as compound hydrolysis by spectrophotometry
# [34] = substrate: CO/N=C(\C(=O)N[C@@H]1C(=O)N2C(C(=O)O)=C(COC(C)=O)CS[C@H]12)c1csc(N)n1; assay: as §2
# [35] = substrate: CO/N=C(\C(=O)N[C@@H]1C(=O)N2C(C(=O)O)=C(CSc3cnns3)CS[C@H]12)c1csc(N)n1; assay: as §2
# [36] = substrate: C[C@H]1[C@H](NC(=O)/C(=N\OC(C)(C)C(=O)O)c2csc(N)n2)C(=O)N1S(=O)(=O)O; assay: as §2
# [37] = substrate: O=C(Cc1cccs1)N[C@@H]1C(=O)N2C(C(=O)[O-])=C(C[n+]3ccccc3)CS[C@H]12; assay: as §2
molecule,measurement,setting,value
CC(=O)OCC1=C(C(=O)O)N2C(=O)[C@@H](NC(=O)Cc3cccs3)[C@H]2SC1 [CEPHALOTHIN],Km,Escherichia coli [1],70 µM
same,kcat,Escherichia coli [1],200 s⁻¹
same,Km,Escherichia coli [2],77 µM
same,kcat,Escherichia coli [2],370 s⁻¹
same,Km,Escherichia coli [3],140 µM
same,kcat,Escherichia coli [3],180 s⁻¹
same,Km,Escherichia coli [4],120 µM
same,kcat,Escherichia coli [4],410 s⁻¹
same,Km,Escherichia coli [5],98 µM
same,kcat,Escherichia coli [5],320 s⁻¹
same,Km,Escherichia coli [6],200 µM
same,kcat,Escherichia coli [6],780 s⁻¹
same,Km,Escherichia coli [7],170 µM
same,kcat,Escherichia coli [7],690 s⁻¹
same,Km,Escherichia coli [8],150 µM
same,kcat,Escherichia coli [8],620 s⁻¹
same,kcat/Km,Escherichia coli [9],1.2 ×10⁶ /s/M
same,kcat/Km,Escherichia coli [10],2.8 ×10⁶ /s/M
same,kcat/Km,Escherichia coli [11],4.8 ×10⁶ /s/M
same,kcat/Km,Escherichia coli [12],3.3 ×10⁶ /s/M
same,kcat/Km,Escherichia coli [13],3.3 ×10⁶ /s/M
same,kcat/Km,Escherichia coli [14],4 ×10⁶ /s/M
same,kcat/Km,Escherichia coli [15],4.1 ×10⁶ /s/M
same,kcat/Km,Escherichia coli [16],4.1 ×10⁶ /s/M
same,MIC,Escherichia coli [17],2050 µg/mL
same,MIC,Escherichia coli [18],512 µg/mL
same,MIC,Escherichia coli [19],2050 µg/mL
same,MIC,Escherichia coli [20],2050 µg/mL
same,MIC,Escherichia coli [21],2050 µg/mL
same,MIC,Escherichia coli [22],2050 µg/mL
same,MIC,Escherichia coli [23],2050 µg/mL
same,MIC,Escherichia coli [24],2050 µg/mL
same,MIC,Escherichia coli [25],128 µg/mL
same,MIC,Escherichia coli [26],2 µg/mL
"Beta-lactamase Toho-1 (Escherichia coli), Q47066 (protein) MMTQSIRRSMLTVMATLPLLFSSATLHAQANSVQQQLEALEKSSGGRLGVALINTADNSQILYRADERFAMCSTSKVMAAAAVLKQSESDKHLLNQRVEIKKSDLVNYNPIAEKHVNGTMTLAELGAAALQYSDNTAMNKLIAHLGGPDKVTAFARSLGDETFRLDRTEPTLNTAIPGDPRDTTTPLAMAQTLKNLTLGKALAETQRAQLVTWLKGNTTGSASIRAGLPKSWVVGDKTGSGDYGTTNDIAVIWPENHAPLVLVTYFTQPEQKAERRRDILAAAAKIVTHGF",Km,[27],190 µM
same,kcat,[27],790 s⁻¹
same,Km,[28],24 µM
same,kcat,[28],42 s⁻¹
same,Km,[29],210 µM
same,kcat,[29],390 s⁻¹
same,Km,[30],150 µM
same,kcat,[30],530 s⁻¹
same,Km,[31],45 µM
same,kcat,[31],8.3 s⁻¹
same,Km,[32],280 µM
same,kcat,[32],420 s⁻¹
same,kcat/Km,[33],4.3 ×10⁶ /s/M
same,kcat/Km,[34],1.9 ×10⁶ /s/M
same,kcat/Km,[35],3.5 ×10⁶ /s/M
same,kcat/Km,[36],1.9 ×10⁵ /s/M
same,kcat/Km,[37],1.5 ×10⁶ /s/M
